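Cultured in 96-well plates, cells were exposed to test compound for 48 hours across five concentrations. Abbreviation: GI50, concentration required for 50% inhibition of growth.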 Calls of active or inactive are those of the source. Rule as the data show it: active = GI50 up to about 1.1 µM and inactive = higher.

Some test systems named below: MDA-N; CAKI-1; MDA-MB-435; HOP-92; OVCAR-5; KM12; K562; SK-MEL-2; TK-10; CCRF-CEM; MDA-MB-231; 786-0; LOX IMVI; NCI-H522; HOP-62; SN12C; HCC 2998; RPMI-8226; OVCAR-8; ACHN.
Experiment in all cases: inhibition of tumour cell growth, NCI panel, 48 h

On to `N#C/C(=C\c1ccc([N+](=O)[O-])o1)c1n[nH]c(Cc2ccccc2)n1`, for which the GI50 was 1 µM (active) with MDA-N; 1.95 µM (inactive) with CAKI-1; 1.67 µM (inactive) in the assay with MDA-MB-435; 2.77 µM (inactive) in the assay with HOP-92; 1.64 µM (inactive) in the assay on OVCAR-5; 2.19 µM (inactive) with KM12. In addition, the GI50 is 1.55 µM (inactive) in the assay on K562; 1.99 µM (inactive) with SK-MEL-2; 2 µM (inactive) in the assay with TK-10; 0.265 µM (active) in the assay with CCRF-CEM; 1.57 µM (inactive) with MDA-MB-231; 0.847 µM (active) in the assay with 786-0. The GI50 with LOX IMVI is 1.07 µM (active); in the assay on NCI-H522 it was 0.368 µM (active); in the assay with HOP-62, 2.62 µM (inactive); in the assay with SN12C it was 1.49 µM (inactive); in the assay with HCC 2998, 1.63 µM (inactive); in the assay with RPMI-8226, 0.335 µM (active). Also, the GI50 in the assay with OVCAR-8 was 2.84 µM (inactive); in the assay on ACHN, 1.78 µM (inactive).

With `O=[N+]([O-])c1cc2[nH]nnc2c2nonc12`, the GI50 is 20.6 µM (inactive) in the assay with MDA-N; 29.7 µM (inactive) with CAKI-1; 13.1 µM (inactive) with MDA-MB-435; 36.5 µM (inactive) in the assay with HOP-92; 29 µM (inactive) with OVCAR-5; 33 µM (inactive) in the assay with KM12. In addition, the GI50 in the assay with K562 was 22.8 µM (inactive); in the assay with SK-MEL-2, 40.7 µM (inactive); with TK-10, 40.4 µM (inactive); with CCRF-CEM it was 14.4 µM (inactive); in the assay with MDA-MB-231, 32.7 µM (inactive); in the assay with 786-0 it was 38.5 µM (inactive). Also, the GI50 in the assay with LOX IMVI is 20.1 µM (inactive); with NCI-H522, 14.3 µM (inactive); in the assay on HOP-62, 55 µM (inactive); in the assay with SN12C, 41.5 µM (inactive); with HCC 2998 it was 17.9 µM (inactive); in the assay with RPMI-8226, 24 µM (inactive). For the same compound, the GI50 in the assay with OVCAR-8 was 21.1 µM (inactive); in the assay with ACHN, 23.4 µM (inactive).

As to `O=C(Nc1ccc(Cl)cc1)c1cc(S(=O)(=O)Nc2nc3cccnc3[nH]2)c(SSc2cc(Cl)c(C(=O)Nc3ccc(Cl)cc3)cc2S(=O)(=O)Nc2nc3cccnc3[nH]2)cc1Cl`, the GI50 with MDA-N, in the assay with CAKI-1, in the assay on MDA-MB-435, with HOP-92, in the assay on OVCAR-5 and in the assay with KM12 was > 100 µM (inactive) in each case. Besides, the GI50 with K562 is 3.86 µM (inactive); with SK-MEL-2, > 100 µM (inactive); in the assay on TK-10, > 100 µM (inactive); in the assay on CCRF-CEM, > 100 µM (inactive); in the assay on MDA-MB-231, > 100 µM (inactive); in the assay with 786-0, > 100 µM (inactive). The GI50 with LOX IMVI, in the assay with NCI-H522, in the assay on HOP-62, with SN12C, in the assay with HCC 2998 and in the assay on RPMI-8226 was > 100 µM (inactive) in each case. The GI50 in the assay with OVCAR-8 and in the assay with ACHN was > 100 µM (inactive) each time.

For `COc1ncnc2c(NC3OC(CO)C(O)C3O)ncnc12` (stereo not given), the GI50 is 0.274 µM (active) with MDA-N; 0.267 µM (active) with CAKI-1; 0.578 µM (active) in the assay on MDA-MB-435; 0.0156 µM (active) in the assay with HOP-92; 0.569 µM (active) in the assay on OVCAR-5; 0.458 µM (active) with KM12. The GI50 was 0.0306 µM (active) with K562; 2.47 µM (inactive) in the assay on SK-MEL-2; 0.298 µM (active) in the assay on TK-10; < 0.0209 µM (active) in the assay on CCRF-CEM; 0.149 µM (active) with MDA-MB-231; 0.537 µM (active) in the assay on 786-0. The GI50 is 0.0445 µM (active) with LOX IMVI; 1.53 µM (inactive) in the assay with NCI-H522; 0.408 µM (active) in the assay on HOP-62; 0.428 µM (active) with SN12C; 1.26 µM (inactive) in the assay with HCC 2998; 0.371 µM (active) in the assay with RPMI-8226. Also, the GI50 with OVCAR-8 was 0.329 µM (active); with ACHN it was 0.201 µM (active).

As for `CC(=O)O[C@H]1CC[C@@]2(C)C(=CC[C@H]3[C@@H]4C/C(=C\c5ccncc5)[C@H](OC(C)=O)[C@@]4(C)CC[C@@H]32)C1`, the GI50 is 18.3 µM (inactive) with MDA-N; 11.2 µM (inactive) in the assay with CAKI-1; 12.9 µM (inactive) with MDA-MB-435; 3.48 µM (inactive) with HOP-92; 16.9 µM (inactive) in the assay with OVCAR-5; 4.57 µM (inactive) with KM12. Besides, the GI50 in the assay on K562 was 3.15 µM (inactive); in the assay on SK-MEL-2, 16.7 µM (inactive); with TK-10 it was 22.5 µM (inactive); in the assay with CCRF-CEM it was 3.35 µM (inactive); in the assay on MDA-MB-231 it was 19.1 µM (inactive); in the assay on 786-0, 11.3 µM (inactive). For the same compound, the GI50 is 3.48 µM (inactive) with LOX IMVI; 3.65 µM (inactive) in the assay on NCI-H522; 4.54 µM (inactive) in the assay with HOP-62; 16.9 µM (inactive) in the assay with SN12C; 13.1 µM (inactive) in the assay with HCC 2998; 2.46 µM (inactive) in the assay on RPMI-8226. Further, the GI50 in the assay on OVCAR-8 was 11.8 µM (inactive); in the assay on ACHN, 15.1 µM (inactive).

In the case of `Cc1cn(CC2=NCC(O)CN2)c(=O)[nH]c1=O` (stereo not given), the GI50 in the assay on MDA-N, in the assay on CAKI-1, with MDA-MB-435, in the assay with HOP-92, in the assay with OVCAR-5 and in the assay on KM12 was > 100 µM (inactive) throughout. Also, the GI50 in the assay on K562, with SK-MEL-2, with TK-10, with CCRF-CEM, in the assay on MDA-MB-231 and with 786-0 was > 100 µM (inactive) in each case. Further, the GI50 in the assay with LOX IMVI, in the assay with NCI-H522, with HOP-62, with SN12C, in the assay with HCC 2998 and with RPMI-8226 was > 100 µM (inactive) each time. The GI50 in the assay with OVCAR-8 and in the assay on ACHN was > 100 µM (inactive) throughout.

For `O=[N+]([O-])c1cccc2nc3ccccc3c(NCCCNc3c4ccccc4nc4cccc([N+](=O)[O-])c34)c12`, the GI50 in the assay with MDA-N was 0.0123 µM (active); in the assay on CAKI-1, < 0.0215 µM (active); with MDA-MB-435, 0.0167 µM (active); in the assay with HOP-92, < 0.01 µM (active); in the assay on OVCAR-5 it was 0.0435 µM (active); in the assay on KM12 it was < 0.013 µM (active). Further, the GI50 with K562 was < 0.01 µM (active); in the assay on SK-MEL-2, 0.035 µM (active); in the assay on TK-10, 0.02 µM (active); in the assay with CCRF-CEM, 0.0251 µM (active); with MDA-MB-231 it was < 0.0122 µM (active); with 786-0, 0.0146 µM (active). Besides, the GI50 in the assay with LOX IMVI was 0.0977 µM (active); in the assay on NCI-H522, 0.0146 µM (active); in the assay with HOP-62, < 0.0156 µM (active); with SN12C, < 0.0169 µM (active); in the assay on HCC 2998, 0.0157 µM (active); in the assay on RPMI-8226, < 0.01 µM (active). Also, the figures for the GI50 in the assay on OVCAR-8 and with ACHN were < 0.0139 µM (active) and 0.0121 µM (active), respectively.

Regarding `C[C@H]1[C@H](C)CC[C@]2(C(=O)OC3OC(CO)C(O)C(O)C3O)CC[C@]3(C)C(=CC[C@@H]4[C@@]5(C)C[C@@H](O)[C@@H]6OC(=O)c7cc(O)c(O)c(O)c7-c7c(cc(O)c(O)c7O)C(=O)OC[C@]6(CO)[C@@H]5CC[C@]43C)[C@H]12` (stereo not given in full), the GI50 in the assay on MDA-N is 21.5 µM (inactive); in the assay on CAKI-1, 17 µM (inactive); in the assay with MDA-MB-435, 17.8 µM (inactive); in the assay on HOP-92, 63.1 µM (inactive); in the assay with OVCAR-5, > 67.9 µM (inactive); in the assay with KM12, 24.2 µM (inactive). Besides, the GI50 in the assay on K562 is 45.7 µM (inactive); with SK-MEL-2 it was > 65 µM (inactive); with TK-10, > 100 µM (inactive); in the assay on CCRF-CEM it was 20.8 µM (inactive); in the assay on MDA-MB-231 it was 12.4 µM (inactive); in the assay with 786-0, 14 µM (inactive). For the same compound, the GI50 in the assay on LOX IMVI is 12.6 µM (inactive); in the assay on NCI-H522, 13.6 µM (inactive); in the assay with HOP-62, 30.9 µM (inactive); in the assay with SN12C, 30.5 µM (inactive); in the assay on HCC 2998, 17.3 µM (inactive); in the assay on RPMI-8226, 66.7 µM (inactive). Besides, the GI50 in the assay on OVCAR-8 was 29.6 µM (inactive); with ACHN, > 73.3 µM (inactive).

Consider `CCN(CC)CCC(=O)c1ccc(Oc2ccc(Cl)cc2)cc1`, for which the GI50 in the assay on MDA-N was 16.1 µM (inactive); in the assay with CAKI-1 it was 23.3 µM (inactive); with MDA-MB-435, 18.1 µM (inactive); with HOP-92, 16.2 µM (inactive); in the assay with OVCAR-5 it was 16.2 µM (inactive); in the assay with KM12, 14.4 µM (inactive). The GI50 in the assay with K562 is 31.8 µM (inactive); with SK-MEL-2, 14.5 µM (inactive); in the assay with TK-10, 18.3 µM (inactive); in the assay with CCRF-CEM, 19.5 µM (inactive); with MDA-MB-231, 14.5 µM (inactive); in the assay with 786-0 it was 14.9 µM (inactive). Besides, the GI50 is 14.6 µM (inactive) with LOX IMVI; 19 µM (inactive) with NCI-H522; 11.8 µM (inactive) with HOP-62; 17.4 µM (inactive) in the assay on SN12C; 18.8 µM (inactive) in the assay on HCC 2998; 3.82 µM (inactive) with RPMI-8226. In addition, the GI50 in the assay with OVCAR-8 was 19.9 µM (inactive); in the assay on ACHN, 12.9 µM (inactive).

Take `CCOC(=O)C1=CN(C(=O)c2ccccc2)CCC1Cc1ccccc1` (stereo not given): the GI50 was 19.5 µM (inactive) with MDA-N; 24.4 µM (inactive) in the assay with CAKI-1; 20.4 µM (inactive) in the assay with MDA-MB-435; 14.7 µM (inactive) with HOP-92; 44.6 µM (inactive) with OVCAR-5; 26.1 µM (inactive) in the assay with KM12. Further, the GI50 in the assay with K562 was 17.6 µM (inactive); in the assay on SK-MEL-2, 16.8 µM (inactive); in the assay with TK-10, 22.9 µM (inactive); with CCRF-CEM, 18 µM (inactive); in the assay with MDA-MB-231, 17.7 µM (inactive); with 786-0 it was 28.6 µM (inactive). Moreover, the GI50 with LOX IMVI was 18 µM (inactive); in the assay on NCI-H522, 16.2 µM (inactive); in the assay on HOP-62, 30 µM (inactive); with SN12C, 23.1 µM (inactive); in the assay with HCC 2998 it was 17.6 µM (inactive); in the assay with RPMI-8226 it was 13.5 µM (inactive). Also, the values for the GI50 with OVCAR-8 and in the assay on ACHN were 24.4 µM (inactive) and 20.6 µM (inactive), respectively.

The record behind these values is ChEMBL document CHEMBL1201862, “PubChem BioAssay data set” (2004).
